Reference: ChEMBL document CHEMBL2406902, “Potent and Orally Bioavailable GPR142 Agonists as Novel Insulin Secretagogues for the Treatment of Type 2 Diabetes” (ACS Med Chem Lett, 2013)
Calls of active or inactive are those of the source. No cut-off for these calls is given here.

What was measured:
Cynomolgus monkey [1] = assay: Antidiabetic activity in po dosed cynomolgus monkey having impaired glucose tolerance assessed as decrease in blood glucose level administered 60 mins for once a week followed by glucose challenge by OGTT; format: functional, organism-based; conditions: Macaca fascicularis
[2] = Half life in monkey at 1 mg/kg, po; format: ADME, organism-based, Macaca mulatta; parameters: dose 1 mg/kg, route oral; conditions: rhesus monkey, in vivo
[3] = Metabolic stability in monkey liver microsomes assessed as compound remaining at 1 uM after 30 mins by LC/MS analysis; format: ADME, Macaca mulatta, Microsome; conditions: rhesus monkey, read-out: Stability
[4] = molecular target: T1, Probable G-protein coupled receptor 142 (Homo sapiens, UniProt Q7Z601); assay: Agonist activity at human GPR142 transfected in HEK293 cells after 1 hr by inositol phosphate accumulation assay; format: functional, cell-based
T1 sequence (Q7Z601 whole entry): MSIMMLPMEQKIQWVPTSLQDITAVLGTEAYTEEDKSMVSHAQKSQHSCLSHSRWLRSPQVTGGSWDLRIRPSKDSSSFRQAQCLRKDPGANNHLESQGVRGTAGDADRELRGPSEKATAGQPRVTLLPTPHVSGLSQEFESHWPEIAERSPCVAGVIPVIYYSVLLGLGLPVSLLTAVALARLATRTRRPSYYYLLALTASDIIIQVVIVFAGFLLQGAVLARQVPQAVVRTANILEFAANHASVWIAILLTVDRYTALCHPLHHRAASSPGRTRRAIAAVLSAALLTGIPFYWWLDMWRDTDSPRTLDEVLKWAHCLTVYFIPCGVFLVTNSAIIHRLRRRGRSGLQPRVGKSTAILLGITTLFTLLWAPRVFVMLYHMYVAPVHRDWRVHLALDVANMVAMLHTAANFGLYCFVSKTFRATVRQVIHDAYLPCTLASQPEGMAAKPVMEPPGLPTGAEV

[5] = Permeability of the compound at pH 7.4 by PAMPA; format: ADME; conditions: read-out: permeability
[6] = Clearance in monkey at 0.5 mg/kg, iv; format: ADME, organism-based, Macaca mulatta; parameters: dose 0.5 mg/kg, route intravenous; conditions: rhesus monkey, in vivo
[7] = Permeability of the compound at pH 5 by PAMPA; format: ADME; conditions: read-out: permeability
Mus musculus [8] = assay: Antidiabetic activity in po dosed C57BL/6J mouse assessed as decrease in blood glucose level administered 30 mins followed by glucose challenge by OGTT; format: functional
Cynomolgus monkey [9] = assay: Antidiabetic activity in cynomolgus monkey having impaired glucose tolerance assessed as decrease in blood glucose level at 10 mg/kg, po administered 60 mins for once a week followed by glucose challenge by OGTT; format: functional, organism-based; parameters: dose 10 mg/kg; conditions: Macaca fascicularis
Mus musculus [10] = assay: Antidiabetic activity in po bolus dosed ob/ob mouse assessed as increase in plasma insulin level after 15 to 20 mins; format: functional, organism-based
[11] = Oral bioavailability in monkey at 1 mg/kg; format: ADME, organism-based, Macaca mulatta; conditions: rhesus monkey, in vivo
[12] = Volume of distribution at steady state in monkey at 0.5 mg/kg, iv; format: ADME, organism-based, Macaca mulatta; parameters: dose 0.5 mg/kg, route intravenous; conditions: rhesus monkey, in vivo, read-out: Vdss
Cytochrome P450 3A4 = Cytochrome P450 3A4 (Homo sapiens, UniProt P08684); assay: Inhibition of CYP3A4 (unknown origin); format: ADME
[13] = Metabolic stability in human liver microsomes assessed as compound remaining at 1 uM after 30 mins by LC/MS analysis; format: ADME, Microsome; conditions: read-out: Stability
[14] = Metabolic stability in rat liver microsomes assessed as compound remaining at 1 uM after 30 mins by LC/MS analysis; format: ADME, Microsome; conditions: read-out: Stability
[15] = Metabolic stability in human liver microsomes assessed as compound remaining at 1 uM after 15 mins by LC/MS analysis; format: ADME, Microsome; conditions: read-out: Stability
[16] = Metabolic stability in mouse liver microsomes assessed as compound remaining at 1 uM after 15 mins by LC/MS analysis; format: ADME, Microsome; conditions: read-out: Stability
[17] = Lipophilicity, log D of the compound at pH 7.4; format: physicochemical; conditions: buffer
Cynomolgus monkey [18] = assay: Antidiabetic activity in cynomolgus monkey having impaired glucose tolerance assessed as decrease in blood glucose level at 10 mg/kg administered 60 mins for once a week followed by glucose challenge by OGTT; format: functional, organism-based; parameters: dose 10 mg/kg; conditions: Macaca fascicularis
Mus musculus [19] = assay: Antidiabetic activity in C57BL/6J mouse assessed as decrease in blood glucose level at 10 mg/kg administered 30 mins followed by glucose challenge by OGTT; format: functional, organism-based; parameters: dose 10 mg/kg
Pancreatic islet [20] = assay: Antidiabetic activity in rat primary pancreatic islets assessed as potentiation of insulin secretion under low glucose condition at 1 to 100 uM after 60 mins; format: functional
Mus musculus [21] = assay: Antidiabetic activity in sc dosed mouse assessed as improvement of glucose tolerance; format: functional, organism-based
Pancreatic islet [22] = assay: Antidiabetic activity in rat primary pancreatic islets assessed as potentiation of insulin secretion under high glucose condition at 1 to 100 uM after 60 mins; format: functional

Chain of Cytochrome P450 3A4 (P08684 whole entry): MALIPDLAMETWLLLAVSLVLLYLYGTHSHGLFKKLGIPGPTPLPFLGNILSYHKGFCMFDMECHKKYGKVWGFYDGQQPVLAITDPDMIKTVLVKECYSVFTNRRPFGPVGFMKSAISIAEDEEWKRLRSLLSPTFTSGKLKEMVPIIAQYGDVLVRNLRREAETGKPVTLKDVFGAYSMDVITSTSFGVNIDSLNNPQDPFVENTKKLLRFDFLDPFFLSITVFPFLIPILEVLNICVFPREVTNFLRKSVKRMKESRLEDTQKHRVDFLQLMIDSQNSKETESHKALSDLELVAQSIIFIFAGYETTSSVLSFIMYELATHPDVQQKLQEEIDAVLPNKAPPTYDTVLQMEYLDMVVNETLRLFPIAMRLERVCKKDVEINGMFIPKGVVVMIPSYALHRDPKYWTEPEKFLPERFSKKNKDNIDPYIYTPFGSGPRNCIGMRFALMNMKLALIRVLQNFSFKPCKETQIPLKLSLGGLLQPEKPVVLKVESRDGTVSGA

CCOCc1c(C(=O)NCc2cncn2C)cnn1-c1ncc(C)c(N2CCCCC2)n1
Activity (Cynomolgus monkey [1]): Dose-dependent effect | half-life [2]: 1.2 h | remaining at 0.5 h, 1 µM [3]: 61% | EC50 ([4]; read-out: EC50): 22 nM | Papp [5]: 3.5 ×10⁻⁶ cm/s | clearance [6]: 16.7 mL/min/kg | Papp [7]: 1.5 ×10⁻⁶ cm/s | Activity (Mus musculus [8]): Dose-dependent effect | ED50 (Mus musculus [8]; 0.5 h): 3.3 mg/kg | Activity (Cynomolgus monkey [9]): Active | Activity (Mus musculus [10]): Dose-dependent effect | bioavailability [11]: 26% | Vd [12]: 0.77 L/kg | IC50 (Cytochrome P450 3A4): 1000 nM | remaining at 0.5 h, 1 µM [13]: 88% | remaining at 0.5 h, 1 µM [14]: 53%

CCc1c(C(=O)NCc2ccncc2)cnn1-c1ncc(C)c(-c2cccs2)n1
EC50 ([4]; read-out: EC50): 1000 nM

CCOCc1c(C(=O)NCc2cncn2C)cnn1-c1ncc(C)c(NC2CCC2)n1
remaining at 0.5 h, 1 µM [3]: 68% | EC50 ([4]; read-out: EC50): 25 nM | Papp [5]: 1.6 ×10⁻⁶ cm/s | Papp [7]: 0.2 ×10⁻⁶ cm/s | remaining at 0.5 h, 1 µM [13]: 87%

CCC(C)c1c(C(=O)NCc2ccncc2)cnn1-c1ncc(C)c(-c2cccs2)n1 (stereo not given)
EC50 ([4]; read-out: EC50): 1200 nM

CCCCc1c(C(=O)NCc2cncn2C)cnn1-c1ncc(C)c(-c2cccs2)n1
remaining at 0.5 h, 1 µM [3]: 40% | EC50 ([4]; read-out: EC50): 1 nM | Papp [5]: 8 ×10⁻⁶ cm/s | Papp [7]: 3.6 ×10⁻⁶ cm/s | remaining at 0.25 h, 1 µM [15]: 70% | remaining at 0.5 h, 1 µM [13]: 74% | remaining at 0.25 h, 1 µM [16]: 56% | remaining at 0.5 h, 1 µM [14]: 54%

CCOCc1c(C(=O)NCc2cncn2C)cnn1-c1ncc(C)c(N2CCCC2)n1
remaining at 0.5 h, 1 µM [3]: 46% | EC50 ([4]; read-out: EC50): 14 nM | logD [17]: 2 | Papp [5]: 3.1 ×10⁻⁶ cm/s | Papp [7]: 0.8 ×10⁻⁶ cm/s | remaining at 0.5 h, 1 µM [13]: 69% | remaining at 0.5 h, 1 µM [14]: 66%

CCCCCc1c(C(=O)NCc2ccncc2)cnn1-c1ncc(C)c(-c2cccs2)n1
EC50 ([4]; read-out: EC50): 1000 nM

CCOCc1c(C(=O)NCc2cncn2C)cnn1-c1ncc(C)c(-c2cccs2)n1
remaining at 0.5 h, 1 µM [3]: 34% | EC50 ([4]; read-out: EC50): 1.3 nM | logD [17]: 2.2 | Papp [5]: 4 ×10⁻⁶ cm/s | Papp [7]: 2 ×10⁻⁶ cm/s | remaining at 0.5 h, 1 µM [13]: 71%

CCOCc1c(C(=O)NCc2cncn2C)cnn1-c1ncc(C)c(N2CCC2)n1
remaining at 0.5 h, 1 µM [3]: 78% | EC50 ([4]; read-out: EC50): 28 nM | Papp [5]: 1.6 ×10⁻⁶ cm/s | Papp [7]: 0.2 ×10⁻⁶ cm/s | remaining at 0.5 h, 1 µM [13]: 76%

CCCc1c(C(=O)NC(C)(C)c2ccncc2)cnn1-c1ncc(C)c(-c2cccs2)n1
EC50 ([4]; read-out: EC50): 5 nM | remaining at 0.25 h, 1 µM [16]: 2%

CCCCc1c(C(=O)NCc2c[nH]c3ccccc23)cnn1-c1ncc(C)c(-c2cccs2)n1
EC50 ([4]; read-out: EC50): > 20000 nM

CCCc1c(C(=O)NCc2cn(C)cn2)cnn1-c1ncc(C)c(-c2cccs2)n1
EC50 ([4]; read-out: EC50): 15000 nM | remaining at 0.25 h, 1 µM [16]: 4.7%

N[C@@H](CC(=O)N1CCn2c(nnc2C(F)(F)F)C1)Cc1cc(F)c(F)cc1F
Activity (Cynomolgus monkey [18]): Active | Activity (Mus musculus [19]): Active

CCCCc1c(C(=O)NC2CCCc3ncn(C)c32)cnn1-c1ncc(C)c(-c2cccs2)n1 (stereo not given)
EC50 ([4]; read-out: EC50): 100 nM | remaining at 0.25 h, 1 µM [15]: 22% | remaining at 0.25 h, 1 µM [16]: 5%

CCCCc1c(C(=O)NCc2ccc(F)cc2)cnn1-c1ncc(C)c(-c2cccs2)n1
EC50 ([4]; hek293): Not Active | remaining at 0.25 h, 1 µM [16]: 2%

CCCCc1c(C(=O)NCc2ccncc2)cnn1-c1ncc(C)c(-c2cccs2)n1
EC50 ([4]; read-out: EC50): 7 nM

CCCCc1c(C(=O)NCc2ccnn2C)cnn1-c1ncc(C)c(-c2cccs2)n1
EC50 ([4]; read-out: EC50): 90 nM | remaining at 0.25 h, 1 µM [16]: 13%

CCOCc1c(C(=O)NCc2ccncc2)cnn1-c1ncc(C)c(-c2cccs2)n1
EC50 ([4]; read-out: EC50): 30 nM

CCCc1c(C(=O)N(CC)Cc2ccncc2)cnn1-c1ncc(C)c(-c2cccs2)n1
EC50 ([4]; read-out: EC50): 3000 nM | remaining at 0.25 h, 1 µM [16]: 0%

CCOCc1c(C(=O)NCc2cncn2C)cnn1-c1ncc(C)c(OCC)n1
remaining at 0.5 h, 1 µM [3]: 66% | EC50 ([4]; read-out: EC50): 96 nM | Papp [5]: 2.9 ×10⁻⁶ cm/s | Papp [7]: 1.2 ×10⁻⁶ cm/s | remaining at 0.5 h, 1 µM [13]: 77% | remaining at 0.5 h, 1 µM [14]: 77%

CCCc1c(C(=O)NCc2cc(C)no2)cnn1-c1ncc(C)c(-c2cccs2)n1
EC50 ([4]; read-out: EC50): > 20000 nM | remaining at 0.25 h, 1 µM [16]: 11%

CCCCc1c(C(=O)NCc2cnc(C)n2C)cnn1-c1ncc(C)c(-c2cccs2)n1
EC50 ([4]; read-out: EC50): 30 nM | remaining at 0.25 h, 1 µM [15]: 20% | remaining at 0.25 h, 1 µM [16]: 6%

COCc1c(C(=O)NCc2ccncc2)cnn1-c1ncc(C)c(-c2cccs2)n1
Activity (Pancreatic islet [20]): inactive | EC50 ([4]; read-out: EC50): 1500 nM | clearance [6]: 21.7 mL/min/kg | bioavailability [11]: 3.9% | Vd [12]: 1 L/kg | Activity (Mus musculus [21]): Active | remaining at 0.25 h, 1 µM [16]: 3% | Activity (Pancreatic islet [22]): Active

CCCc1c(C(=O)NCc2ccncc2)cnn1-c1ncc(C)c(-c2cccs2)n1
EC50 ([4]; read-out: EC50): 250 nM | remaining at 0.25 h, 1 µM [16]: 1%

CCCCc1c(C(=O)NCc2cncn2CC(=O)O)cnn1-c1ncc(C)c(-c2cccs2)n1
EC50 ([4]; read-out: EC50): 0.2 nM | remaining at 0.25 h, 1 µM [16]: 93%

CCCCc1c(C(=O)NCc2sc(C)nc2C)cnn1-c1ncc(C)c(-c2cccs2)n1
EC50 ([4]; read-out: EC50): 200 nM | remaining at 0.25 h, 1 µM [16]: 10%

CCCCc1c(C(=O)NCc2c(C)ncn2C)cnn1-c1ncc(C)c(-c2cccs2)n1
EC50 ([4]; read-out: EC50): 1 nM | remaining at 0.25 h, 1 µM [15]: 19%
